Measurements published in US20140235444A1, “SYNERGISTIC SUPRESSION OF GRASS SEEDHEAD PRODUCTION FROM APPLICATIONS OF AMINOCYCLOPYRACHLOR AND METSULFURON” (Dow AgroSciences LLC, priority 2013, published 2014).

System: X fescue in a Kentucky blue grass mix
Assay: Field trial, prevention or suppression of grass seedhead production, postemergence foliar application
Type: in vivo
Settings: 12 days after application, scale 0-100% vs untreated control
Experimental: Field trials were conducted with applications made to established pastures having X fescue in a Kentucky blue grass mix. The target plants were treated with postemergence foliar applications when they were approximately 6-10 inches tall. All treatments were applied using a randomized complete block trial design, with four replications per treatment.
Treatments consisted of aminocyclopyrachlor in acid form and metsulfuron-methyl, each in water and applied alone or in combination. Spray solutions were prepared using an appropriate amount of dilution to form a 1 liter (L) aqueous spray solution with active ingredients in single and two-way combinations. Formulated compounds were applied to the plant material with a backpack sprayer equipped with 8003 flat fan nozzles calibrated to deliver 20 gallons per acre (gal/acre) or 187 liters per hectare (L/ha) at a spray height of 15 inches (38.1 centimeters (cm)) above the grass.
The treated plots and control plots were rated blind at various intervals after application. […]
Colby's equation was used to determine the seedhead-suppressant effects expected from the mixtures, as described above. The results were measured at 12 days after the first application of the compositions. […]

For Metsulfuron-Methyl, the “Mean % seedhead suppression” value (Metsulfuron-Methyl alone, 13 g ae/ha) was 80.0%.

With Nc1nc(C2CC2)nc(C(=O)O)c1Cl [Aminocyclopyrachlor, 6-amino-5-chloro-2-cyclopropylpyrimidine-4-carboxylic acid] the “Mean % seedhead suppression” value (Aminocyclopyrachlor alone, 70 g ae/ha) was 5.0%.
